Laboratory results taken from ChEMBL document CHEMBL1150969, “New alkaloids from the papua new guinean sponge agelas nakamurai” (J Nat Prod, 1998).
In brackets after ≈: the same amount, converted by molar mass. Activity calls are given as the source filed them. No cut-off for these calls is given here.

Key:
[1] = tested on: Staphylococcus epidermidis; assay: Antimicrobial activity against Staphylococcus epidermidis 13889; assay type: functional, organism-based
Enterococcus faecalis = assay: Antimicrobial activity against Enterococcus faecalis 12964; assay type: functional, organism-based
Staphylococcus aureus [2] = assay: Antimicrobial activity against Staphylococcus aureus 12732; assay type: functional, organism-based
Staphylococcus aureus [3] = assay: Antimicrobial activity against methicillin-resistant Staphylococcus aureus; assay type: functional, organism-based
Candida albicans = assay: Antimicrobial activity against Candida albicans IFO 1269; assay type: functional, organism-based
Cryptococcus neoformans = assay: Antimicrobial activity against Cryptococcus neoformans TIMM 0354; assay type: functional, organism-based
Escherichia coli = assay: Antimicrobial activity against Escherichia coli upto 12.5 ug/ml; assay type: functional, organism-based
Pseudomonas aeruginosa = assay: Antimicrobial activity against Pseudomonas aeruginosa upto 12.5 ug/ml; assay type: functional, organism-based
[4] = target: Human immunodeficiency virus type 1 integrase (Human immunodeficiency virus 1) (UniProt Q7ZJM1); assay: Inhibition of HIV1 integrase at 10 ug/ml
Enterococcus faecium = assay: Antimicrobial activity against Enterococcus faecium 12367; assay type: functional, organism-based

Chain of Human immunodeficiency virus type 1 integrase (Human immunodeficiency virus 1) (Q7ZJM1 as listed by the source): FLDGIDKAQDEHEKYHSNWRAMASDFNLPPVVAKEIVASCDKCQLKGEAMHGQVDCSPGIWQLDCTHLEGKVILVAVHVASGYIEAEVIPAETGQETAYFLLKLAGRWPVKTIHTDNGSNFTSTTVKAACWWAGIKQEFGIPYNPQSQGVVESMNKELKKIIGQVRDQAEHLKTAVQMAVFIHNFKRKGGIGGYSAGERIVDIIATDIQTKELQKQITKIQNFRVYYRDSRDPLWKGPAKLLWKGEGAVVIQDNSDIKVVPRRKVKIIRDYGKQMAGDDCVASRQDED

NC(=O)c1ccc(Br)[nH]1 gave an IC50 [1] of 3.13 µg/mL (≈ 16.6 µM), an IC50 (Enterococcus faecalis) of 6.25 µg/mL (≈ 33.1 µM) and an IC50 (Staphylococcus aureus [2]) of 0.78 µg/mL (≈ 4.13 µM). It also gave an IC50 (Staphylococcus aureus [3]) of 3.13 µg/mL (≈ 16.6 µM), an IC50 (Candida albicans) of 6.25 µg/mL (≈ 33.1 µM) and an IC50 (Cryptococcus neoformans) of 3.13 µg/mL (≈ 16.6 µM). For the same compound, the Activity (Escherichia coli) was “inactive”, the Activity (Pseudomonas aeruginosa) was “inactive” and the Activity [4] was “inactive”. For the same compound, the IC50 (Enterococcus faecium) was 3.13 µg/mL (≈ 16.6 µM).
In the case of C=C1CC[C@]2(C)[C@@H](C)CCC[C@]2(C)[C@H]1CC/C(C)=C/Cn1c[n+](C)c2ncnc(N)c21, the Activity (Escherichia coli) is reported as “inactive”, the Activity (Pseudomonas aeruginosa) is reported as “inactive” and the Activity [4] is reported as “inactive”.
Work on CC1=CCC[C@@H]2[C@@](C)(CC/C(C)=C/Cn3c[n+](C)c4ncnc(N)c43)[C@H](C)CC[C@@]12C.[Cl-] [AGELASINE B] yielded an IC50 [1] of 1.56 µg/mL, an IC50 (Enterococcus faecalis) of 6.25 µg/mL and an IC50 (Staphylococcus aureus [2]) of 0.78 µg/mL. For the same compound, the IC50 (Staphylococcus aureus [3]) was 3.13 µg/mL, the IC50 (Candida albicans) was > 12.5 µg/mL and the IC50 (Cryptococcus neoformans) was 3.13 µg/mL. For the same compound, the IC50 (Enterococcus faecium) was 3.13 µg/mL.
For COCNC(=O)c1ccc(Br)[nH]1, the Activity (Escherichia coli) was “inactive”, the Activity (Pseudomonas aeruginosa) was “inactive” and the Activity [4] was “inactive”.
